Data reported in patent publication US7345018B2, “Method of treating side effects induced by therapeutic agents” (Reception ApS, priority 2002, dated 2008).

Key:
[1] = system: cells expressing megalin and cubilin; assay: Inhibition of cellular accumulation of radiolabeled gentamicin; assay type: cell-based; conditions: FIG. 4
mouse kidney = assay: Inhibition of uptake of radio-labeled gentamicin into mouse kidney; assay type: in vivo; conditions: intravenous co-infusion, FIG. 5
From the text: FIG. 5: Inhibition of uptake of radio-labeled gentamicin into mouse kidney
The drugs were administrated intravenously. […] This is most likely because infused RAP rapidly is cleared from the circulation by uptake into the liver.

megalin [2] = assay: Uptake of radioactively labelled gentamicin in wildtype and megalin-deficient (knockout) mice; assay type: in vivo, mouse; conditions: megalin-deficient knockout mice, after 24 hours
Experimental: (§1) Radioactively labelled aminoglycosides (gentamicin) were injected into 26 normal (wildtype) and into 3 megalin-deficient mice (knockout). After 24 hours, the secretion of the aminoglycosides into the urine and their accumulation in the kidneys were determined. In wildtype mice, about 10% of the administered aminoglycosides are accumulated in the kidneys and 40% are secreted into the urine.
(§2) In one embodiment the animal model is a mouse model with an induced megalin gene defect (knockout mouse; Nykjaer, A. et al., Cell 96, 507-515). In these animals, the contribution of megalin and other receptor-mediated or receptor-independent processes to the drug uptake into the kidneys may be tested. The amount of intracellular accumulation of the drug in question as compared to a control having sufficient megalin indicates whether the mechanism of side effects is intracellular accumulation through megalin binding or some other mechanism.

megalin [3] = molecular target: T1, megalin (Mus musculus, UniProt A2ARV4); assay: as above; assay type: in vivo; conditions: wildtype mice, after 24 hours, radioactively labelled
T1 construct: from tissue; host or cells: kidney of living wildtype mice (in vivo); the knockout mice lack the receptor
Experimental: as §1, §2

megalin [4] = assay: BIAcore analysis of binding to megalin
cubilin = molecular target: T2, cubilin (Oryctolagus cuniculus, UniProt U3KLX7); assay: BIAcore analysis of binding to cubilin; conditions: for effect of reduction of disulfide-bridges on binding to cubilin: reduced receptor (reducing agent)
T2 construct: Megalin and cubilin purified from rabbit kidney cortex; from tissue

megalin [5] = molecular target: T1, megalin; assay: Suppression of radioactive gentamicin uptake into the kidneys of wildtype mice by megalin antagonist; assay type: in vivo; conditions: co-injection with radioactive gentamicin
Experimental: Two groups of wildtype mice received an injection of radioactive gentamicin. One group was also injected with polymyxin B, a substance that binds with a high affinity to megalin and displaces gentamicin from the receptor. The administration of polymyxin B reduces the uptake of aminoglycosides into the kidneys by more than 60%.

[6] = patients, nephro- and ototoxic side effects; cited from earlier work
megalin [7] = conditions: relative to gentamicin; cited from earlier work
[8] = addition of EDTA (calcium depletion)

T2 sequence (U3KLX7 20-3539): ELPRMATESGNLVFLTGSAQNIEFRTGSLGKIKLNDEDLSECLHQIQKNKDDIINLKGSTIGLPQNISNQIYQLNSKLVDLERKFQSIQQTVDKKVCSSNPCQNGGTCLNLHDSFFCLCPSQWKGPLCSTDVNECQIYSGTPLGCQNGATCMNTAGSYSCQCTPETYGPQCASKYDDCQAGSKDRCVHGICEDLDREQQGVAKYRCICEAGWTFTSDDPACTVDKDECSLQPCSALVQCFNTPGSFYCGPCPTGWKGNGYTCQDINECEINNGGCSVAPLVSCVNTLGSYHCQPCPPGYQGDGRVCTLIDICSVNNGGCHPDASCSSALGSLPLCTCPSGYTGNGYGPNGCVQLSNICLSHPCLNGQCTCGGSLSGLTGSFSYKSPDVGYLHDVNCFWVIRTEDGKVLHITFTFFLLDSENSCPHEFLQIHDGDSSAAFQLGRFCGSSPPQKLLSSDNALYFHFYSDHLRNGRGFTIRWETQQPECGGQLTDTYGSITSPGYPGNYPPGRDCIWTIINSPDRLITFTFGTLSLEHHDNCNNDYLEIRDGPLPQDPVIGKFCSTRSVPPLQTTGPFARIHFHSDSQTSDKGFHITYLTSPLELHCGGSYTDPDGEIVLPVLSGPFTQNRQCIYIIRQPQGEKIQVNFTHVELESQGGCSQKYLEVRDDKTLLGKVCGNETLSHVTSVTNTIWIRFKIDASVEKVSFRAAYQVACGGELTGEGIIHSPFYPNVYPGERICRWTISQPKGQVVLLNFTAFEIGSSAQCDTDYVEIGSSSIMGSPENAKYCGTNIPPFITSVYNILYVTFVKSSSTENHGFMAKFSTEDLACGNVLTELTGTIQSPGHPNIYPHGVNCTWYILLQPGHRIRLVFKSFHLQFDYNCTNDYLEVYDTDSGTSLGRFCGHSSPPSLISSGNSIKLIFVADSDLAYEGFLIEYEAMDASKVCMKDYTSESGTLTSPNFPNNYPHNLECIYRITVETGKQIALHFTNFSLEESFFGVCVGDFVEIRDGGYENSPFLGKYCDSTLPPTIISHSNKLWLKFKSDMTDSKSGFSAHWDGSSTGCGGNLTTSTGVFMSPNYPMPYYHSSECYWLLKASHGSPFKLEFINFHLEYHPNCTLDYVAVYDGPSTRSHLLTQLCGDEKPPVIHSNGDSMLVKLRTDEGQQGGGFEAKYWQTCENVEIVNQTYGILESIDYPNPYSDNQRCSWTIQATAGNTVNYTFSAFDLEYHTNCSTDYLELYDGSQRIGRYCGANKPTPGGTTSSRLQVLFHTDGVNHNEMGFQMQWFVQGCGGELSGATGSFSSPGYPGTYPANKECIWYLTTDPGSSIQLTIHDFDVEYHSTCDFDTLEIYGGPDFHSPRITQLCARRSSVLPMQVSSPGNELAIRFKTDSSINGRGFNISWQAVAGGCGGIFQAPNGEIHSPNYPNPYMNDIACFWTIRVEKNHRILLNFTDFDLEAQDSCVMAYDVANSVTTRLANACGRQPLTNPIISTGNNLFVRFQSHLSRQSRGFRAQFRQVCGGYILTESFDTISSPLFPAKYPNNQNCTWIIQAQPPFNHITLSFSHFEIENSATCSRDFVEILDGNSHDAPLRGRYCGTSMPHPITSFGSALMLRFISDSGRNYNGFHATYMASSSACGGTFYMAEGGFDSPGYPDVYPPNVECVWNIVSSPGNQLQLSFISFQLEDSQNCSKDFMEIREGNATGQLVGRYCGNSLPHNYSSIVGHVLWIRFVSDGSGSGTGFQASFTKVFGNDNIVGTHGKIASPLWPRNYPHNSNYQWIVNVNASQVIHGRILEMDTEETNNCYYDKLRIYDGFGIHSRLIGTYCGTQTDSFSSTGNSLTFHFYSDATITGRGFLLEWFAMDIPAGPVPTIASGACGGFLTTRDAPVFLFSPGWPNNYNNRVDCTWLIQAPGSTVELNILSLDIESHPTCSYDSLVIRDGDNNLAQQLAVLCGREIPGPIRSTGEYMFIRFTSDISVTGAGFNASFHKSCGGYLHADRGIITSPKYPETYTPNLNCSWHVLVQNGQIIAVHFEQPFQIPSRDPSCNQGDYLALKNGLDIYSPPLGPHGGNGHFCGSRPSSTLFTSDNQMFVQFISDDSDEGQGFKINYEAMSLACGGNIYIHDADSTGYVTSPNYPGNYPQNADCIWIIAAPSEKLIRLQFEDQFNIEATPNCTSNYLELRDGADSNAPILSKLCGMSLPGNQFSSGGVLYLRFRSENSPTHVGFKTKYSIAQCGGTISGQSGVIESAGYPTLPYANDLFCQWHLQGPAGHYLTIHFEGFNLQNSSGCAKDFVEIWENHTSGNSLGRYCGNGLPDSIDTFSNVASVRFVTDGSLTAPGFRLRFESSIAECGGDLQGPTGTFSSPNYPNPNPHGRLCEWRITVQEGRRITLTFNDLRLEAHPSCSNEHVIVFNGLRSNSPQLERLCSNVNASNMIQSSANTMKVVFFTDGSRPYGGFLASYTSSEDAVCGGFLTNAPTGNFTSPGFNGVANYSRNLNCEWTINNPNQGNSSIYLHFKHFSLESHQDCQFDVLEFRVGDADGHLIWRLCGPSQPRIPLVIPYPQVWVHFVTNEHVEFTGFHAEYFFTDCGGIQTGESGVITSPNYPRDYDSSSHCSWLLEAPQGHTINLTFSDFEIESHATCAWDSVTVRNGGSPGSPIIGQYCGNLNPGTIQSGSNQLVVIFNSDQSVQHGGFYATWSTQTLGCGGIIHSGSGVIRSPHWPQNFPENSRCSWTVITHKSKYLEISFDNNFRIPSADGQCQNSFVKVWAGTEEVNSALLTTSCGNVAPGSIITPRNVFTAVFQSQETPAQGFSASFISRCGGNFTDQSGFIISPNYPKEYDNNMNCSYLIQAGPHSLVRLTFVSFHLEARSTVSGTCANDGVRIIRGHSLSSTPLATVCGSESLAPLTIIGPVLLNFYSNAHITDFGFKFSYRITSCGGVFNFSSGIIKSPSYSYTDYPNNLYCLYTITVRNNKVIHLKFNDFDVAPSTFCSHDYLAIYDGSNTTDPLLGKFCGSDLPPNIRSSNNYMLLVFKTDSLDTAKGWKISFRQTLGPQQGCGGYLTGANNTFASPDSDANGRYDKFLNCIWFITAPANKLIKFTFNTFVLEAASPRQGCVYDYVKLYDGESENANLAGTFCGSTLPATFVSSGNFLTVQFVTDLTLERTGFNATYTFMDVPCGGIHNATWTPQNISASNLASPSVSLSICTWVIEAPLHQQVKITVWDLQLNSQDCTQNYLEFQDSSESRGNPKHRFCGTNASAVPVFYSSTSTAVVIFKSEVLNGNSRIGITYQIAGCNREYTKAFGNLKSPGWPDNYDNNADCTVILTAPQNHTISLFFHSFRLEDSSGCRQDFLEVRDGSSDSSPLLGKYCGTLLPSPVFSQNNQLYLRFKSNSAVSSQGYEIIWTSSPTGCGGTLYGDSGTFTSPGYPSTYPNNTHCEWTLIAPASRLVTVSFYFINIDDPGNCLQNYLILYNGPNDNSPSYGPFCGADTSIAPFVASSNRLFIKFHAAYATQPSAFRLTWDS

In the case of aprotinin, the “inhibition of cellular accumulation of radiolabeled gentamicin” value (“inhibition … of radiolabeled gentamicin” for short) [1] is reported as “inhibit gentamioin uptake”.

In the case of gentamicin, the “inhibition of uptake of radio-labeled gentamicin into mouse kidney” value (mouse kidney) is reported as “can be inhibited”, the “accumulation of aminoglycoside in the kidneys” value (megalin [2]) is reported as “no accumulation” and the “secretion of antibiotic into the urine” value (megalin [2]) is reported as 40%. For the same molecule, the “accumulation of administered aminoglycoside in the kidneys” value (megalin [3]) was “about 10%”, the “secretion of administered aminoglycoside into the urine” value (megalin [3]) was 40% and the binding to megalin (megalin [4]; BIAcore, FIG. 3 panel A) was “direct binding”. The “effect of EDTA on binding to megalin” value (megalin [4]; [8]) was “does not abolish binding”, the “effect of reduction of disulfide-bridges on binding to megalin” value (megalin [4]; reduced receptor) was “does not significantly interefere with ligand binding” and the binding to cubilin (cubilin; BIAcore, FIG. 3 panel B) was “direct binding”. The “effect of EDTA on binding to cubilin” value (cubilin; [8]) was “does not abolish binding” and the “effect of reduction of disulfide-bridges on binding to cubilin” value (cubilin) was “does not significantly interefere with ligand binding”.

In the case of polymyxin B, the “inhibition … of radiolabeled gentamicin” value [1] is reported as “inhibit gentamioin uptake”, the “inhibition of uptake of radio-labeled gentamicin into mouse kidney” value (mouse kidney) is reported as “can be inhibited” and the “reduction of uptake of aminoglycosides into the kidneys” value (megalin [5]) is reported as “more than 60%”.

For poly-L-lysine, the “inhibition … of radiolabeled gentamicin” value [1] was “can be inhibited” and the “inhibition of uptake of radio-labeled gentamicin into mouse kidney” value (mouse kidney) was “can be inhibited”.

For “RAP: receptor-associated protein, a cellular protein comprising about 300 amino acids, known to bind to megalin”, the “inhibition … of radiolabeled gentamicin” value [1] was “able to inhibit at least partly” and the “effect of reduction of disulfide-bridges on binding to cubilin” value (cubilin) was “significantly inhibited”.

In the case of `NCC[C@H](O)C(=O)N[C@@H]1C[C@H](N)[C@@H](O[C@H]2O[C@H](CN)[C@@H](O)[C@H](O)[C@H]2O)[C@H](O)[C@H]1O[C@H]1O[C@H](CO)[C@@H](O)[C@H](N)[C@H]1O` [amikacin], the rate of toxicity [6] is listed as 1-4% and the “poorer binding than gentamicin to megalin” value (megalin [7]) is listed as “about 5 times”.

With poly-L-aspartate the “inhibition … of radiolabeled gentamicin” value [1] was “not”.
